Data: US9145376B2, “Quinazolinone inhibitors of dynein” (The Rockefeller University, priority 2011, dated 2015)

Tests used:
[1] = molecular target: T1, cytoplasmic dynein purified from bovine brain (Bos taurus, UniProt A0A3Q1NEU9); test: Microtubule surface gliding assay, dynein; type: biochemical; settings: for dynein-dependent microtubule movement (gliding velocity): 100 μM; for IC50: dynein-dependent microtubule gliding in vitro, read-out: IC50 of microtubule gliding inhibition
T1 construct: Cytoplasmic dynein was purified from bovine brain tissue; from tissue; host or cells: bovine brain
T1 sequence (A0A3Q1NEU9 1-4657): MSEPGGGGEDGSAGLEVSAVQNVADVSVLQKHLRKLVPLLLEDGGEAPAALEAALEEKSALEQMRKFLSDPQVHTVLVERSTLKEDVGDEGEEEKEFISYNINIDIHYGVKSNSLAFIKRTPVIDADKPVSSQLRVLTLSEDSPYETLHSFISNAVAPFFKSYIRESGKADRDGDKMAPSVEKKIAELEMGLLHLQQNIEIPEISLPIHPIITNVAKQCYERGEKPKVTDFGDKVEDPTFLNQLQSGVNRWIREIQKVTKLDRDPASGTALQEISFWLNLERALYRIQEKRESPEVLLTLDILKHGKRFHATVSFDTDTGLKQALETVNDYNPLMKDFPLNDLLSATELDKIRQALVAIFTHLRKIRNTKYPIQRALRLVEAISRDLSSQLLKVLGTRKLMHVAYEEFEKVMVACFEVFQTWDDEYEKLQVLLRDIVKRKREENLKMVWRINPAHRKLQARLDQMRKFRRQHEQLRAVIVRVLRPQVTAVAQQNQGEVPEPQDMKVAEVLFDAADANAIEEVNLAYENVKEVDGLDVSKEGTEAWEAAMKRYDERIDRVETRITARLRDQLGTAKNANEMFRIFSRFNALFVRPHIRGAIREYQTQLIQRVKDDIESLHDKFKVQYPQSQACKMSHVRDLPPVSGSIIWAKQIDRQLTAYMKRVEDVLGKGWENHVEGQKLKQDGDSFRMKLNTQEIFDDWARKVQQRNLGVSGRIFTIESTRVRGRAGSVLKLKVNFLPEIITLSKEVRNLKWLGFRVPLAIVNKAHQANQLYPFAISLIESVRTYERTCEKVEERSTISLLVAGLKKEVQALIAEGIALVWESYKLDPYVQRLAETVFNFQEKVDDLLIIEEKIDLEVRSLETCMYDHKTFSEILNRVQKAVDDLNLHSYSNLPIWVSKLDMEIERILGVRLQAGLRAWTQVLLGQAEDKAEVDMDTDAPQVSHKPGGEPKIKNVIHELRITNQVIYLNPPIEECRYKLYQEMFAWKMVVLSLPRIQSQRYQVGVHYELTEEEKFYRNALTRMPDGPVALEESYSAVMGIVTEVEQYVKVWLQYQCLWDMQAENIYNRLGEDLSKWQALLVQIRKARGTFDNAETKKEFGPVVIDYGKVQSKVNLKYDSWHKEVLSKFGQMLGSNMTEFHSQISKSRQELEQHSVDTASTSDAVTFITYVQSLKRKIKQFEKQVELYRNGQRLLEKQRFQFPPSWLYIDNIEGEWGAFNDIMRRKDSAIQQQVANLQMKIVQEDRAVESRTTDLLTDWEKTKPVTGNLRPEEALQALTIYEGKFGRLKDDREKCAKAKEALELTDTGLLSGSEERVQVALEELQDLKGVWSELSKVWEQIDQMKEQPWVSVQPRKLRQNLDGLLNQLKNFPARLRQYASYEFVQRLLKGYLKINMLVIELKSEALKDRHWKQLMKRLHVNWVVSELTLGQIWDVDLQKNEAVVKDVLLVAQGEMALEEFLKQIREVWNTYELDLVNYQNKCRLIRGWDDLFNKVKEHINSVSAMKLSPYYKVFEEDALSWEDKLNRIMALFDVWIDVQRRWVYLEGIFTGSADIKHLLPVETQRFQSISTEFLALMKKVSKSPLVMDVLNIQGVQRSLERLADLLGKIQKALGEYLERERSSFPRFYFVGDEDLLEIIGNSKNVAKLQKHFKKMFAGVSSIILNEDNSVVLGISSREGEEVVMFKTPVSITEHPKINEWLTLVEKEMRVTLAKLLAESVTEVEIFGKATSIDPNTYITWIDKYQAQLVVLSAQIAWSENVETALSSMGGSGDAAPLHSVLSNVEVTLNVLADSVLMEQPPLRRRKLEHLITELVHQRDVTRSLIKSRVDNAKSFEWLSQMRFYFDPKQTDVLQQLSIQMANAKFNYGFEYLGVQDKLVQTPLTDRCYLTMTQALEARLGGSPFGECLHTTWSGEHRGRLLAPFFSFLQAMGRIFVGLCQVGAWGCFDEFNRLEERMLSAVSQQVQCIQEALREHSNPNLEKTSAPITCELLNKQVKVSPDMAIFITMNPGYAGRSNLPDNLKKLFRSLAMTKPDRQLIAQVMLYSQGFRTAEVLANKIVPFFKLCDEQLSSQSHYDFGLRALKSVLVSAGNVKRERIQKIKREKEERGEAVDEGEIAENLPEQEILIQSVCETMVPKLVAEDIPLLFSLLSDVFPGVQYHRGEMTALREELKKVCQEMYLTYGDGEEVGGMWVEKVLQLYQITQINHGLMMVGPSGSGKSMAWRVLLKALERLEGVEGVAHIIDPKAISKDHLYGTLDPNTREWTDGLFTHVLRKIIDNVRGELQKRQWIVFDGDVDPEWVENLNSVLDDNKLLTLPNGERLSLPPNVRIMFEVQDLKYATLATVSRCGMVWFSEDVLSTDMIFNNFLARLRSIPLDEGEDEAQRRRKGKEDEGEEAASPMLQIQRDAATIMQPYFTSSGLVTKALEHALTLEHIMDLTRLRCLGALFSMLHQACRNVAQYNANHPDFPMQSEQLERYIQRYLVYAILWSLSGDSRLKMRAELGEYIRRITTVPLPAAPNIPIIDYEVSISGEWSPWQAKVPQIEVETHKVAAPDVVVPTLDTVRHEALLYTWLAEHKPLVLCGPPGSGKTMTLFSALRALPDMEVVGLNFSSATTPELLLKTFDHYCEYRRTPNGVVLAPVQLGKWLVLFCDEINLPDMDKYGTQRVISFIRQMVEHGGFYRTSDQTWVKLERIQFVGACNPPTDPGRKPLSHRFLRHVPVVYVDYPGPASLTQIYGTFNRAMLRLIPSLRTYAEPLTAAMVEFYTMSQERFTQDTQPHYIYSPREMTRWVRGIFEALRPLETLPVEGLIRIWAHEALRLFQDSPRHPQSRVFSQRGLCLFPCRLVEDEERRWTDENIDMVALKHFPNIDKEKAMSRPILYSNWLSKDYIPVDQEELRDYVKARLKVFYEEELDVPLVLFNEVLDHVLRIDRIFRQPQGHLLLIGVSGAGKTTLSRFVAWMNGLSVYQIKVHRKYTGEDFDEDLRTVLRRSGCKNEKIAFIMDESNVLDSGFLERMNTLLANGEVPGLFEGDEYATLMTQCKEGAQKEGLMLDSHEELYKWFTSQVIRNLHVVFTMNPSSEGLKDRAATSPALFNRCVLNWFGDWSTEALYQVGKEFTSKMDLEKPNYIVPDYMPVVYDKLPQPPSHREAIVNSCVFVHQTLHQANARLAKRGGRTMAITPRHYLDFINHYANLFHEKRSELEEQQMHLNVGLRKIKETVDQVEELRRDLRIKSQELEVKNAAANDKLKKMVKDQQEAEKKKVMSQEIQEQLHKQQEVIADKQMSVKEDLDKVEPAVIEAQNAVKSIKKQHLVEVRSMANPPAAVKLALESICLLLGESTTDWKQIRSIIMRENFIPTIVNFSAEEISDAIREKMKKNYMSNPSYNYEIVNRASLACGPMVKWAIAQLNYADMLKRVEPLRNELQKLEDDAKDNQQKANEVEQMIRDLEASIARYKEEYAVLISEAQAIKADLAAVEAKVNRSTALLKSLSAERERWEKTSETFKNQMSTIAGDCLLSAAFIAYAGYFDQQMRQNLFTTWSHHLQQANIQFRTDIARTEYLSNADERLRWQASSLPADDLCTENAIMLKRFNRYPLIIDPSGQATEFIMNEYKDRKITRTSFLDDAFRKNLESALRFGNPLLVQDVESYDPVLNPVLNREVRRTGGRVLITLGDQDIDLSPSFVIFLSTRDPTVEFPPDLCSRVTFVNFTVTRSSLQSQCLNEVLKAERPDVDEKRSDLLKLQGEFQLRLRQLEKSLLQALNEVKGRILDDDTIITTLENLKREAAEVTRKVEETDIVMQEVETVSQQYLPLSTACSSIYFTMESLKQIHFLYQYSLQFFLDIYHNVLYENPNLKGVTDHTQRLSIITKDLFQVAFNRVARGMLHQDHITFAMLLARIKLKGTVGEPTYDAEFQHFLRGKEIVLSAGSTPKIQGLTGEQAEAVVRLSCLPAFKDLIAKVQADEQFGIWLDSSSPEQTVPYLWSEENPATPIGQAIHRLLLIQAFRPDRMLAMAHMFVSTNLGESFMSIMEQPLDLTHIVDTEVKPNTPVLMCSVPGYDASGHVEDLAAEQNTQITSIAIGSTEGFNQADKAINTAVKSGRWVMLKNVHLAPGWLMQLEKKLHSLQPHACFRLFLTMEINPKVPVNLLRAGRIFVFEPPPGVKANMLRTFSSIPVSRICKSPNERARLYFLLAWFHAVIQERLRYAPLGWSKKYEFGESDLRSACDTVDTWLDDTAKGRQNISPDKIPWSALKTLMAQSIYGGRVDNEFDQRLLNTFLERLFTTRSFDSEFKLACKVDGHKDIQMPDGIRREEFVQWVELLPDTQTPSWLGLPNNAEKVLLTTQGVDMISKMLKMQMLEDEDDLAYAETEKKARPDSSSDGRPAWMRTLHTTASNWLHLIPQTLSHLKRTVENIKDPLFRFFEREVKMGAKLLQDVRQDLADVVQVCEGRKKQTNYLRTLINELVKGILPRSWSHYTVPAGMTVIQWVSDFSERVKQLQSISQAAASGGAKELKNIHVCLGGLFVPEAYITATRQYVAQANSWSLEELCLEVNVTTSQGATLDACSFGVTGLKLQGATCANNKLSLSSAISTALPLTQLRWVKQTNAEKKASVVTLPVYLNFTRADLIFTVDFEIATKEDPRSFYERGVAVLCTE
Method: To more directly examine whether cytoplasmic dynein is the direct target of the ciliobrevins, we evaluated their effects on dynein-dependent microtubule gliding in vitro. Cytoplasmic dynein was purified from bovine brain tissue, adsorbed onto glass slides, and then incubated with fluorescently labeled microtubules and ATP in the presence or absence of these compounds. We then imaged and quantified the resulting microtubule gliding velocities by epifluorescence microscopy.
Cytoplasmic dynein was purified from bovine brains as described by Bingham et al. [Methods Enzymol. 298, 171 (1998)]. K560, a 560-amino acid N-terminal fragment of human conventional kinesin (kinesin-1) with a C-terminal His-tag, was expressed in bacteria and purified as described by Woehlke et al., [Cell 90, 207 (1997)]. Motility assays were performed on a Zeiss Axiovert 200M wide-field microscope equipped with a Zeiss 100×/1.45 NA α-Plan-Fluar objective. Data were captured with an EM-CCD camera (iXon DU-897, Andor Technology) with a 0.3-second exposure time and frame rate of 0.5 second^−1. Microtubule gliding assays were performed as described by Kapoor and Mitchison [Proc. Natl. Acad. Sci. U.S.A. 96, 9106 (1999)] with some modifications. An approximately 6 μL flow chamber was filled with motor protein (100 μg/mL dynein or 50 μg/mL K560) in motor dilution buffer (80 mM Pipes, 1 mM EGTA, 2 mM MgCl2, 2 mM DTT, 50 μM ATP, pH 6.8 with KOH). After a 2-minute incubation, excess protein was washed out with […] of PEM80 buffer (80 mM Pipes, 1 mM EGTA, 2 mM MgCl2, pH 6.8 with KOH) and the surface was blocked against non-specific microtubule binding by filling the chamber with blocking protein (0.5 mg/mL α-casein for dynein experiments and 1 mg/mL BSA for K560 experiments) in motor dilution buffer. After 2 minutes the chamber was perfused with 18 μL of reaction mix (PEM80, 40 mM KCl, blocking protein [1 mg/mL a-casein for dynein experiments; 1 mg/mL BSA for K560 experiments], 2 mM MgATP, 20 μM taxol, 0.1 μM rhodamine-labeled microtubules, oxygen depletion system [4 mM DTT, 2 mM glucose, 40 μg/mL glucose oxidase, 35 μg/mL catalase], 2.5% DMSO, and test compounds as appropriate). The flow chamber was then sealed with valap. After allowing the microtubules to bind to the surface for 5 minutes, the gliding microtubules were visualized by time-lapse fluorescence microscopy. Velocities were measured by kymography using Metamorph software (Molecular Devices), and the velocity for each microtubule was determined from the total distance during the time observed.
For washout experiments, the chamber was left unsealed after the initial reaction mix containing inhibitor was added. Microtubules were allowed to bind to the surface for 5 minutes, and then a time-lapse movie was acquired. The inhibitor was then washed out of the chamber by flowing in 20 μL of fresh reaction mix (PEM80, 40 mM KCl, 1 mg/mL α-casein, 2 mM MgATP, 20 μM taxol, oxygen depletion system, and 2.5% DMSO) without additional microtubules or inhibitor. The chamber was sealed, and additional time-lapse movies were acquired.

[2] = system: Hh pathway (Gli-responsive firefly luciferase reporter in Shh-LIGHT2 cells); test: Shh-LIGHT2 assay for Hh pathway activity; type: cell-based; settings: 10% Shh-conditioned medium, 24 hours, firefly/Renilla luciferase ratio
Method: Shh-N-conditioned medium was prepared as described by Chen et al., Proc. Natl. Acad. Sci. U.S.A. 99, 14071 (2002). Shh-LIGHT2 cells [J. Taipale et al., Nature 406, 1005 (2000)], an NIH-3T3-based cell line containing a stably integrated Gli-responsive firefly luciferase reporter and a constitutive thymidine kinase promoter-driven Renilla luciferase expression construct (pRLTK, Promega), were cultured in DMEM containing 10% calf serum. 100 U/mL penicillin, and 0.1 mg/mL streptomycin. The cells were seeded into 96-well plates at a density of 30,000 cells/well, and the following day they were treated with individual compounds or DMSO in DMEM containing 0.5% calf serum, 10% Shh-conditioned medium, and the antibiotics described above. After being cultured for another 24 hours, the cells were lysed and their firefly and Renilla luciferase activities were determined using, a dual luciferase reporter kit (Promega) and a microplate luminometer (Veritas). Average values representing the firefly luciferase/Renilla luciferase ratio from triplicate samples were used to construct dose response profiles for each compound. Dose-response data from three separate experiments were independently curve-fitted with a variable slope, sigmoidal dose-response algorithm using Prism software, and the resulting IC50 values were used to generate an average IC50 for each compound.

SMILES	dynein-dependent microtubule movement (gliding velocity) [1]	IC50 [1]	IC50 [2]
N#C/C(C(=O)c1ccc(Cl)cc1Cl)=C1\NC(=O)c2ccccc2N1 [Example 1, 3-(2,4-dichlorophenyl)-3-oxo-2-(4-oxo-3,4-dihydroquinazolin-2(1H)-ylidene)propanenitrile]	at least five-fold	30 µM	9.9 µM
N#C/C(C(=O)c1ccc(Cl)cc1)=C1\NC(=O)c2ccccc2N1 [Example 2, 3-(4-chlorophenyl)-3-oxo-2-(4-oxo-3,4-dihydroquinazolin-2(1H)-ylidene)propanenitrile]	minimal effects		5.2 µM
N#C/C(C(=O)c1ccccc1)=C1\NC(=O)c2ccccc2N1 [Example 16, 3-oxo-2-(4-oxo-3,4-dihydroquinazolin-2(1H)-ylidene)-3-phenylpropanenitrile]	minimal effects		23 µM
N#C/C(C(=O)c1ccc(Cl)cc1Cl)=C1\NC(=O)c2ccc(Cl)cc2N1 [Example 31, 2-(7-chloro-4-oxo-3,4-dihydroquinazolin-2(1H)-ylidene)-3-(2,4-dichlorophenyl)-3-oxo-propanenitrile]	at least five-fold	40 µM	15 µM
